Results from ChEMBL document CHEMBL1149750, “Drimane Sesquiterpene Lactones from Peniophora polygonia” (J Nat Prod, 1992).
Active and inactive are the calls of the source. No cut-off for these calls is given here.

Test system: Phellinus tremulae
Experiment: Antifungal activity against Phellinus tremulae
Format: functional, organism-based

In the case of CC1(C)CCC[C@]2(C)[C@H]3COC(=O)[C@@]3(O)CC[C@@H]12, the Activity is reported as “Active”.
